Target: Neuronal acetylcholine receptor alpha3/beta4 (Sus scrofa)
Experiment: Binding affinity to Nicotinic acetylcholine receptor alpha3-beta4 using +/-[3H]epibatidine as radioligand in pig adrenal gland

Row | SMILES | Ki [µM]
1 | C1=C(c2ccnnc2)C2CC[C@H](CC1)N2 [2-Pyridazin-4-yl-9-aza-bicyclo[4.2.1]non-2-ene] | 0.0025
2 | C1=C(c2cncnc2)C2CC[C@H](CC1)N2 [2-Pyrimidin-5-yl-9-aza-bicyclo[4.2.1]non-2-ene] | 0.02
